The subject of experiment [1] is male Wistar rats. Nature of the experiment: formalin test, comparison with diclofenac (Example 3). It is filed as in vivo, rat. The note with it: i.p. 30 minutes before formalin. As to the method: Male Wistar rats 6 weeks of age were used. The rats in one group were given bovine lactoferrin and those in another group were given a control drug, diclofenac, by intraperitoneal administration 30 minutes before injecting formalin into their foot pads. Their responses to pain are shown in FIG. 5: the phase 1 pain (left) and the phase 2 pain (right).
Lactoferrin and diclofenac were administered intraperitoneally 30 minutes before formalin injection both in the control group (n=4) and the diclofenac group (n=5). The pain inhibiting effect of diclofenac disappeared about 50 minutes after formalin injection, whereas the pain inhibiting effect of lactoferrin lasted long and even 60 minutes after formalin injection.

Experiment [2] relates to volunteers affected by frozen shoulder. Nature of the experiment: frozen shoulder volunteers, oral enteric coated tablets (Example 11). Type of experiment: in vivo, human. As to the method: Three male volunteers […], each of who was affected frozen shoulder and could not raise either one of their hands above the shoulder, took orally the enteric coated tablets of lactoferrin from bovine milk (Production Example 4). […] They took lactoferrin in a daily dose of 450 mg in 3 uniformly divided portions after each meal. […] disappeared and was cured in one volunteer on day 7 after the initial administration and in the other volunteers on day 12 and on day 23 after the same, respectively.

Experiment [3] relates to patients with osteoarthritis. Nature of the experiment: osteoarthritis patients, oral enteric coated tablets (Example 9). It is filed as in vivo, human. To be noted: diclofenac in the former, ibuprofen in the latter. As for the experimental part:
Lactoferrin extracted from bovine milk was formed into enteric coated tablets (Production Example 4) and given orally to a person whose right knee and right elbow were affected by osteoarthritis associated with the injuries caused by their falling off a bicycle and a person whose knee joints were affected by osteoarthritis associated with obesity. Lactoferrin was administered at a dose of 150 mg (450 mg per day) 3 times a day after each meal.

Experiment [4] has as its system male Wistar rats. Nature of the experiment: formalin test, intrathecal administration, comparison with morphine (Example 12). It is filed as in vivo. The note with it: 30 minutes before formalin, bLF 0.1 to 100 μg/rat, rhLF 100 μg/rat, morphine 10 μg/rat, FIGS. 15. As for the experimental part:
Groups consisting of male Wistar rats 6 weeks of age (n=6 to 8) were intrathecally administered 0.1 to 100 μg/rat of bovine lactoferrin (bLF), 100 μg/rat of recombinant human lactoferrin (rhLF) or 10 μg/rat of morphine (Mor) 30 minutes before formalin was injected into their foot pads. The results are shown in FIGS. 15: the number of the foot-lifting times in the phase 1 pain (left graph) and the number of the foot-lifting times in the phase 2 pain (right graph).

As for `O=C(O)Cc1ccccc1Nc1c(Cl)cccc1Cl` [diclofenac, reference compound], in the experiment with male Wistar rats [1] (FIG. 5), the “inhibition of phase 1 pain” value is “did not” and the “inhibition of phase 2 pain” value is on record as “inhibited the phase 2 pain, but the degree of inhibition was low compared with that by lactoferrin”. The “duration of pain inhibiting effect after formalin injection” value in the experiment on male Wistar rats [1] (FIGS. 7 and 8) is “about 50 minutes”. Besides, the “response to earlier treatment” value in experiment [2] was “failed to respond”. For the same compound, the “response to earlier treatment” value in experiment [3] was “failed to respond”.
For `CC(C)Cc1ccc(C(C)C(=O)O)cc1` (centres unmarked) [ibuprofen], the “response to earlier treatment” value in experiment [3] is “failed to respond”.
In the case of `CN1CC[C@]23c4c5ccc(O)c4O[C@H]2[C@@H](O)C=C[C@H]3[C@H]1C5` [morphine, reference compound], in the experiment on male Wistar rats [4], the “phase 1 pain (number of foot-lifting times)” value is reported as “inhibits” and the “phase 2 pain (number of foot-lifting times)” value is “inhibits”.

These data come from patent US8399414B2, “Analgesics” (NRL Pharma, Inc., priority 2002, dated 2013).
